Assay results as given in ChEMBL document CHEMBL1201862, “PubChem BioAssay data set” (2004).
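Dose response: 5 concentrations. Exposure: 48 h. Format: 96-well plates. Endpoint: linear interpolation; highest concentration if not reached. GI50 marks 50% less growth.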 The source made the active and inactive calls. Rule as the data show it: active = GI50 up to about 1.1 µM and inactive = higher.

How the values were obtained:
Assay in all cases: growth of human tumour cells (NCI), 48 h
BT-549 = test system: BT-549
DMS-114 = test system: DMS-114
KM-20L2 = test system: KM-20L2
M19-MEL = test system: M19-MEL
SNB-78 = test system: SNB-78
DLD-1 = test system: DLD-1
HOP-18 = test system: HOP-18
RXF 631 = test system: RXF 631
XF498 = test system: XF498

In the case of `COC1=CC(=O)c2c(c(COP(=O)(N(C)CCBr)N(C)CCBr)cn2C)C1=O`, the GI50 (BT-549) is reported as 0.078 µM (active).
In the case of `Oc1ccc(Cl)cc1Cc1cc(Cl)cc(Cc2cc(Cl)ccc2O)c1O`, the GI50 (BT-549) is reported as 2.79 µM (inactive).
`CCOC(=O)c1ccc(N2C(=O)Cc3ccccc3C2=O)cc1` was tested, and the GI50 (DMS-114) was > 100 µM (inactive), the GI50 (KM-20L2) was > 100 µM (inactive) and the GI50 (M19-MEL) was > 100 µM (inactive). For the same compound, the GI50 (SNB-78) was > 100 µM (inactive).
For `CC1CCCC(CC(=O)O)(CC(=O)O)C1` (stereo unspecified), the GI50 (BT-549) was > 100 µM (inactive).
In the case of `O=C(O)c1ccc(Oc2nc3ccccc3s2)cc1`, the GI50 (BT-549) is reported as > 100 µM (inactive).
In the case of `Cc1sc2nc(-c3ccc([N+](=O)[O-])cc3)c(/C=N/N=C(N)N)n2c1C`, the GI50 (BT-549) is reported as 1.41 µM (inactive).
For `c1ccc(/C(=N/Nc2ccccn2)c2ncccn2)cc1`, the GI50 (BT-549) was 11.5 µM (inactive).
With `C=CCO/N=C(\OC(=O)c1ccc([N+](=O)[O-])cc1)c1ccccc1` the GI50 (DLD-1) was > 100 µM (inactive), the GI50 (DMS-114) was > 100 µM (inactive) and the GI50 (HOP-18) was > 100 µM (inactive). For the same compound, the GI50 (M19-MEL) was > 100 µM (inactive), the GI50 (RXF 631) was > 100 µM (inactive) and the GI50 (SNB-78) was > 100 µM (inactive).
With `COC(=O)c1cn(CCCC(=O)O)nn1` the GI50 (BT-549) was > 100 µM (inactive).
For `COc1ccccc1NC(=O)C1=C(C)NC(C)=C(C(=O)Nc2ccccc2OC)C1c1ccccc1OC`, the GI50 (DLD-1) was > 100 µM (inactive), the GI50 (DMS-114) was 85.5 µM (inactive) and the GI50 (HOP-18) was > 100 µM (inactive). The GI50 (KM-20L2) was > 100 µM (inactive), the GI50 (M19-MEL) was > 100 µM (inactive) and the GI50 (RXF 631) was > 100 µM (inactive). For the same compound, the GI50 (SNB-78) was > 100 µM (inactive).
In the case of `COc1ccc(/C=C2\CCS(=O)(=O)c3ccccc3C2=O)cc1`, the GI50 (BT-549) is reported as 31.8 µM (inactive).
With `O=[N+]([O-])c1ccc(CSc2c3ccccc3nc3ccccc23)cc1` the GI50 (BT-549) was 18.8 µM (inactive).
In the case of `COc1cc2c3c(c1OC)C1(C=CC(=O)C=C1)CC3N(C(=O)OC(C)(C)C(Cl)(Cl)Cl)CC2` (stereo unspecified), the GI50 (DLD-1) is reported as 8.45 µM (inactive), the GI50 (DMS-114) is reported as 7.55 µM (inactive) and the GI50 (HOP-18) is reported as 22.8 µM (inactive). For the same compound, the GI50 (KM-20L2) was 11.4 µM (inactive), the GI50 (M19-MEL) was 10.8 µM (inactive) and the GI50 (SNB-78) was 14.4 µM (inactive). The GI50 (XF498) was 8.69 µM (inactive).
`CCC(C)C(=O)OC1C(=O)OC2CC3C(C)=CC(=O)C(O)C3(C)C3C4(O)OCC23C1C(C)C4O` (stereo unspecified) was tested, and the GI50 (BT-549) was < 0.017 µM (active).
With `CC(=O)C(CN(Cc1ccccc1)Cc1ccccc1)C(c1ccccc1)c1c(O)c2ccccc2oc1=O` (stereo unspecified) the GI50 (DLD-1) was > 100 µM (inactive), the GI50 (KM-20L2) was > 100 µM (inactive) and the GI50 (M19-MEL) was > 100 µM (inactive). The GI50 (RXF 631) was > 100 µM (inactive), the GI50 (SNB-78) was > 100 µM (inactive) and the GI50 (XF498) was > 100 µM (inactive).
In the case of `Cc1cc(C)[n+](CCOc2ccc(/C(=C(/Cl)c3ccccc3)c3ccccc3)cc2)c(C)c1.[O-][Cl+3]([O-])([O-])[O-]`, the GI50 (DLD-1) is reported as 3.47 µM (inactive), the GI50 (DMS-114) is reported as 1.29 µM (inactive) and the GI50 (KM-20L2) is reported as 0.847 µM (active). For the same compound, the GI50 (M19-MEL) was 0.495 µM (active), the GI50 (SNB-78) was 2 µM (inactive) and the GI50 (XF498) was 0.256 µM (active).
`COc1ccc(-c2cc(-c3ccncc3)nc(N)c2-c2ccc(F)cc2)cc1` was tested, and the GI50 (BT-549) was 37.4 µM (inactive).
For `CCC1CCc2c(c(=O)oc3c2cc(OC)c2cccc(OC)c23)C1` (stereo unspecified), the GI50 (DLD-1) was 48.3 µM (inactive), the GI50 (HOP-18) was > 100 µM (inactive) and the GI50 (KM-20L2) was > 100 µM (inactive). For the same compound, the GI50 (M19-MEL) was 55.8 µM (inactive), the GI50 (SNB-78) was > 100 µM (inactive) and the GI50 (XF498) was 29.5 µM (inactive).
For `CCOC(=O)/C(=C\c1c[nH]c2ccccc12)P(=O)(OCC)OCC`, the GI50 (BT-549) was 25.4 µM (inactive).
For `CNC1=C(C)C(=O)C(O)=C([C@H](C)CCC=C(C)C)C1=O`, the GI50 (BT-549) was 52.2 µM (inactive).
For `CCOC(=O)c1cn(C)c(=S)n2c1nc1ccccc12`, the GI50 (BT-549) was 97.3 µM (inactive).
In the case of `COc1ccc2cc(Oc3ccc(Cl)cc3)c(=O)oc2c1`, the GI50 (BT-549) is reported as > 100 µM (inactive).
`COc1ccc2nc3cc(Cl)ccc3c(Sc3ccc(NC(C)=O)cc3)c2c1` was tested, and the GI50 (DLD-1) was 6.89 µM (inactive), the GI50 (DMS-114) was 6.84 µM (inactive) and the GI50 (HOP-18) was > 29.9 µM (inactive). For the same compound, the GI50 (KM-20L2) was > 21.3 µM (inactive), the GI50 (M19-MEL) was 10.9 µM (inactive) and the GI50 (RXF 631) was 8.85 µM (inactive). For the same compound, the GI50 (SNB-78) was 5.6 µM (inactive).
For `C[C@H]1[C@H](C)N1CC(O)Cn1ccnc1[N+](=O)[O-]` (stereo partly specified), the GI50 (BT-549) was > 100 µM (inactive).
With `O=C(CCO)OCCCCCC/C=C\CCCCCC/C=C\CCCCCCCCOC(=O)CCO` the GI50 (BT-549) was 19 µM (inactive).
`CC(C)OP(=O)(OC(C)C)/C(C#N)=C/c1c[nH]c2ccccc12` was tested, and the GI50 (BT-549) was 31 µM (inactive).
With `O=C(c1ccco1)N(Cc1cccnc1)C(=S)N(Cc1cccnc1)C(=O)c1ccco1` the GI50 (BT-549) was 23.2 µM (inactive).
With `Nc1nc(Cl)c(N)c(NCC2(CO)CCC2)n1` the GI50 (BT-549) was > 100 µM (inactive).
`CCOC(=O)C12OC(OCC)(CC1(OCC)OCC)C1(CC1)C2=O` (stereo unspecified) was tested, and the GI50 (BT-549) was > 100 µM (inactive).
`COC(=O)C1=CC2OC1(C)C1(CC1)C2=O` (stereo unspecified) was tested, and the GI50 (DLD-1) was 14.3 µM (inactive), the GI50 (KM-20L2) was 17.5 µM (inactive) and the GI50 (M19-MEL) was 21 µM (inactive). For the same compound, the GI50 (XF498) was 14.7 µM (inactive).
With `[N-]=[N+]=Nc1cc(=O)oc2ccccc12` the GI50 (DLD-1) was > 100 µM (inactive), the GI50 (DMS-114) was 42.2 µM (inactive) and the GI50 (HOP-18) was > 100 µM (inactive). For the same compound, the GI50 (M19-MEL) was > 100 µM (inactive).
`O=C(O)c1ccc(NC(=O)C2C(=O)C(=O)N(c3ccc(C(=O)O)cc3)C2=O)cc1` (stereo unspecified) was tested, and the GI50 (DLD-1) was > 100 µM (inactive), the GI50 (KM-20L2) was > 100 µM (inactive) and the GI50 (M19-MEL) was > 100 µM (inactive). For the same compound, the GI50 (SNB-78) was > 100 µM (inactive) and the GI50 (XF498) was > 100 µM (inactive).
With `O=C(c1ccco1)N(C(=O)N1CCC(c2ccccc2)CC1)c1ccccc1` the GI50 (BT-549) was 33.7 µM (inactive).
`O=C1C2=C(CCC2)Nc2cccc3ncn1c23` was tested, and the GI50 (DLD-1) was 51.9 µM (inactive), the GI50 (DMS-114) was > 100 µM (inactive) and the GI50 (HOP-18) was 10.6 µM (inactive). For the same compound, the GI50 (KM-20L2) was 41.9 µM (inactive), the GI50 (M19-MEL) was > 100 µM (inactive) and the GI50 (SNB-78) was > 100 µM (inactive). For the same compound, the GI50 (XF498) was 34.8 µM (inactive).
